{"source": "patent US7754946B2", "about": "“Stem-regulated, plant defense promoter and uses thereof in tissue-specific expression in monocots” (The Texas A&M University System, priority 2003, dated 2010)", "test_system": "JAS", "experiment": "Microarray of JAS cDNA clones after spraying sugarcane plants with defense-inducing agents", "type": "in vivo", "conditions": "treated v. untreated plant", "protocol": "The 251 cDNA clones used for microarray analysis in Example 1 were further used to assess the effects of defense-inducing agents on the expression of the stem-specific genes.\nTotal RNA was extracted from wild type sugarcane plants (3 months-old) that were sprayed with the defense-inducing agents jasmonic acid (JA) (25·mu·M in 0.05.percent.Tween 20), methyl-jasmonate (MeJA) (200·mu·M in 0.1.percent.ethanol and 0.05.percent.Tween 20) or salicylic acid (SA) (5 mM in 0.05.percent.Tween 20) for two time periods, 24 and 48 hours. The microarray including 251 cDNAs was probed with fluorescently labeled cDNAs synthesized from 1·mu·g of total amplified RNA. One cDNA probe (e.g. RNA from plant treated with a defense-inducing agent) is labeled with one dye (Cy5), and the second (e.g. RNA from untreated control plant) with another dye (Cy3)\nMicroarray data was analyzed using GeneSpring analysis software. Data were normalized using an endogenous constitutive gene. The normalized ratio of Cy5 v.", "data": [{"smiles": "O=C(O)c1ccccc1O", "note": "[SA, salicylic acid]", "values": [{"measurement": "Cy5/Cy3 Ratios (Upregulation) for JAS", "setting": "clone 2I1, SA 5 mM spray, 48 hours", "result": 16.92}, {"measurement": "Cy5/Cy3 Ratios (Upregulation) for JAS", "setting": "clone 4Q3, SA 5 mM spray, 48 hours", "result": 15.26}, {"measurement": "Cy5/Cy3 Ratios (Upregulation) for JAS", "setting": "clone 5P22, SA 5 mM spray, 48 hours", "result": 18.08}, {"measurement": "Cy5/Cy3 Ratios (Upregulation) for JAS", "setting": "clone 6H10, SA 5 mM spray, 48 hours", "result": 19.22}, {"measurement": "Cy5/Cy3 Ratios (Upregulation) for JAS", "setting": "clone 10P7, SA 5 mM spray, 48 hours", "result": 20.96}, {"measurement": "Cy5/Cy3 Ratios (Upregulation) for JAS", "setting": "clone 12F18, SA 5 mM spray, 48 hours", "result": 17.54}, {"measurement": "Cy5/Cy3 Ratios (Upregulation) for JAS", "setting": "clone 17C11, SA 5 mM spray, 48 hours", "result": 18.83}, {"measurement": "Cy5/Cy3 Ratios (Upregulation) for JAS", "setting": "clone 18H16, SA 5 mM spray, 48 hours", "result": 0.70}, {"measurement": "Cy5/Cy3 Ratios (Upregulation) for JAS", "setting": "clone 20F18, SA 5 mM spray, 48 hours", "result": 19.54}, {"measurement": "Cy5/Cy3 Ratios (Upregulation) for JAS", "setting": "clone 20G16, SA 5 mM spray, 48 hours", "result": 13.81}, {"measurement": "Cy5/Cy3 Ratios (Upregulation) for JAS", "setting": "clone 24G4, SA 5 mM spray, 48 hours", "result": 7.73}, {"measurement": "Cy5/Cy3 Ratios (Upregulation) for JAS", "setting": "clone 25K14, SA 5 mM spray, 48 hours", "result": 0.70}]}, {"smiles": "CC/C=C\\CC1C(=O)CCC1CC(=O)OC", "note": "(stereo not shown) [MeJA, methyl-jasmonate]", "values": [{"measurement": "Cy5/Cy3 Ratios (Upregulation) for JAS", "setting": "clone 2I1, MeJA 200 μM spray, 24 hours", "result": 0.27}, {"measurement": "Cy5/Cy3 Ratios (Upregulation) for JAS", "setting": "clone 2I1, MeJA 200 μM spray, 48 hours", "result": 0.22}, {"measurement": "Cy5/Cy3 Ratios (Upregulation) for JAS", "setting": "clone 4Q3, MeJA 200 μM spray, 24 hours", "result": 0.15}, {"measurement": "Cy5/Cy3 Ratios (Upregulation) for JAS", "setting": "clone 4Q3, MeJA 200 μM spray, 48 hours", "result": 0.18}, {"measurement": "Cy5/Cy3 Ratios (Upregulation) for JAS", "setting": "clone 5P22, MeJA 200 μM spray, 24 hours", "result": 0.16}, {"measurement": "Cy5/Cy3 Ratios (Upregulation) for JAS", "setting": "clone 5P22, MeJA 200 μM spray, 48 hours", "result": 0.17}, {"measurement": "Cy5/Cy3 Ratios (Upregulation) for JAS", "setting": "clone 6H10, MeJA 200 μM spray, 24 hours", "result": 0.15}, {"measurement": "Cy5/Cy3 Ratios (Upregulation) for JAS", "setting": "clone 6H10, MeJA 200 μM spray, 48 hours", "result": 0.19}, {"measurement": "Cy5/Cy3 Ratios (Upregulation) for JAS", "setting": "clone 10P7, MeJA 200 μM spray, 24 hours", "result": 0.13}, {"measurement": "Cy5/Cy3 Ratios (Upregulation) for JAS", "setting": "clone 10P7, MeJA 200 μM spray, 48 hours", "result": 0.15}, {"measurement": "Cy5/Cy3 Ratios (Upregulation) for JAS", "setting": "clone 12F18, MeJA 200 μM spray, 24 hours", "result": 0.20}, {"measurement": "Cy5/Cy3 Ratios (Upregulation) for JAS", "setting": "clone 12F18, MeJA 200 μM spray, 48 hours", "result": 0.21}, {"measurement": "Cy5/Cy3 Ratios (Upregulation) for JAS", "setting": "clone 13F16, MeJA 200 μM spray, 24 hours", "result": 0.25}, {"measurement": "Cy5/Cy3 Ratios (Upregulation) for JAS", "setting": "clone 13F16, MeJA 200 μM spray, 48 hours", "result": 0.34}, {"measurement": "Cy5/Cy3 Ratios (Upregulation) for JAS", "setting": "clone 17C11, MeJA 200 μM spray, 24 hours", "result": 0.17}, {"measurement": "Cy5/Cy3 Ratios (Upregulation) for JAS", "setting": "clone 17C11, MeJA 200 μM spray, 48 hours", "result": 0.17}, {"measurement": "Cy5/Cy3 Ratios (Upregulation) for JAS", "setting": "clone 18H16, MeJA 200 μM spray, 24 hours", "result": 3.00}, {"measurement": "Cy5/Cy3 Ratios (Upregulation) for JAS", "setting": "clone 18H16, MeJA 200 μM spray, 48 hours", "result": 0.79}, {"measurement": "Cy5/Cy3 Ratios (Upregulation) for JAS", "setting": "clone 20F18, MeJA 200 μM spray, 24 hours", "result": 0.16}, {"measurement": "Cy5/Cy3 Ratios (Upregulation) for JAS", "setting": "clone 20F18, MeJA 200 μM spray, 48 hours", "result": 0.18}, {"measurement": "Cy5/Cy3 Ratios (Upregulation) for JAS", "setting": "clone 20G16, MeJA 200 μM spray, 24 hours", "result": 0.50}, {"measurement": "Cy5/Cy3 Ratios (Upregulation) for JAS", "setting": "clone 20G16, MeJA 200 μM spray, 48 hours", "result": 0.49}, {"measurement": "Cy5/Cy3 Ratios (Upregulation) for JAS", "setting": "clone 24G4, MeJA 200 μM spray, 24 hours", "result": 0.37}, {"measurement": "Cy5/Cy3 Ratios (Upregulation) for JAS", "setting": "clone 24G4, MeJA 200 μM spray, 48 hours", "result": 0.41}, {"measurement": "Cy5/Cy3 Ratios (Upregulation) for JAS", "setting": "clone 25K14, MeJA 200 μM spray, 24 hours", "result": 3.07}, {"measurement": "Cy5/Cy3 Ratios (Upregulation) for JAS", "setting": "clone 25K14, MeJA 200 μM spray, 48 hours", "result": 1.02}]}, {"smiles": "CC/C=C\\C[C@H]1C(=O)CC[C@@H]1CC(=O)O", "note": "[JA, jasmonic acid]", "values": [{"measurement": "Cy5/Cy3 Ratios (Upregulation) for JAS", "setting": "clone 2I1, JA 25 μM spray, 24 hours", "result": 0.59}, {"measurement": "Cy5/Cy3 Ratios (Upregulation) for JAS", "setting": "clone 2I1, JA 25 μM spray, 48 hours", "result": 2.10}, {"measurement": "Cy5/Cy3 Ratios (Upregulation) for JAS", "setting": "clone 4Q3, JA 25 μM spray, 24 hours", "result": 0.41}, {"measurement": "Cy5/Cy3 Ratios (Upregulation) for JAS", "setting": "clone 4Q3, JA 25 μM spray, 48 hours", "result": 2.12}, {"measurement": "Cy5/Cy3 Ratios (Upregulation) for JAS", "setting": "clone 5P22, JA 25 μM spray, 24 hours", "result": 0.41}, {"measurement": "Cy5/Cy3 Ratios (Upregulation) for JAS", "setting": "clone 5P22, JA 25 μM spray, 48 hours", "result": 2.10}, {"measurement": "Cy5/Cy3 Ratios (Upregulation) for JAS", "setting": "clone 6H10, JA 25 μM spray, 24 hours", "result": 0.42}, {"measurement": "Cy5/Cy3 Ratios (Upregulation) for JAS", "setting": "clone 6H10, JA 25 μM spray, 48 hours", "result": 2.19}, {"measurement": "Cy5/Cy3 Ratios (Upregulation) for JAS", "setting": "clone 10P7, JA 25 μM spray, 24 hours", "result": 0.59}, {"measurement": "Cy5/Cy3 Ratios (Upregulation) for JAS", "setting": "clone 10P7, JA 25 μM spray, 48 hours", "result": 2.10}, {"measurement": "Cy5/Cy3 Ratios (Upregulation) for JAS", "setting": "clone 12F18, JA 25 μM spray, 24 hours", "result": 0.51}, {"measurement": "Cy5/Cy3 Ratios (Upregulation) for JAS", "setting": "clone 12F18, JA 25 μM spray, 48 hours", "result": 1.64}, {"measurement": "Cy5/Cy3 Ratios (Upregulation) for JAS", "setting": "clone 13F16, JA 25 μM spray, 24 hours", "result": 0.51}, {"measurement": "Cy5/Cy3 Ratios (Upregulation) for JAS", "setting": "clone 13F16, JA 25 μM spray, 48 hours", "result": 2.21}, {"measurement": "Cy5/Cy3 Ratios (Upregulation) for JAS", "setting": "clone 17C11, JA 25 μM spray, 24 hours", "result": 0.35}, {"measurement": "Cy5/Cy3 Ratios (Upregulation) for JAS", "setting": "clone 17C11, JA 25 μM spray, 48 hours", "result": 2.12}, {"measurement": "Cy5/Cy3 Ratios (Upregulation) for JAS", "setting": "clone 18H16, JA 25 μM spray, 24 hours", "result": 1.90}, {"measurement": "Cy5/Cy3 Ratios (Upregulation) for JAS", "setting": "clone 18H16, JA 25 μM spray, 48 hours", "result": 1.40}, {"measurement": "Cy5/Cy3 Ratios (Upregulation) for JAS", "setting": "clone 20F18, JA 25 μM spray, 24 hours", "result": 0.34}, {"measurement": "Cy5/Cy3 Ratios (Upregulation) for JAS", "setting": "clone 20F18, JA 25 μM spray, 48 hours", "result": 2.00}, {"measurement": "Cy5/Cy3 Ratios (Upregulation) for JAS", "setting": "clone 20G16, JA 25 μM spray, 24 hours", "result": 0.85}, {"measurement": "Cy5/Cy3 Ratios (Upregulation) for JAS", "setting": "clone 20G16, JA 25 μM spray, 48 hours", "result": 1.30}, {"measurement": "Cy5/Cy3 Ratios (Upregulation) for JAS", "setting": "clone 24G4, JA 25 μM spray, 24 hours", "result": 0.41}, {"measurement": "Cy5/Cy3 Ratios (Upregulation) for JAS", "setting": "clone 24G4, JA 25 μM spray, 48 hours", "result": 1.14}, {"measurement": "Cy5/Cy3 Ratios (Upregulation) for JAS", "setting": "clone 25K14, JA 25 μM spray, 24 hours", "result": 1.73}, {"measurement": "Cy5/Cy3 Ratios (Upregulation) for JAS", "setting": "clone 25K14, JA 25 μM spray, 48 hours", "result": 1.65}]}]}
